# Patent US5510260A, “Prolactin secreting cell line and method of obtaining the same” (Unversity of Virginia Patent Foundation, priority 1993, dated 1996)
# No end group written: not given here.
# How the values were obtained:
# MMQ cells [1] = experiment: 45Ca2+ uptake/efflux in MMQ (floater) cells; format: cell-based, rat
# Procedure: The MMQ cell line was derived from the pituitary tumor 7315a, a cell line that secretes both prolactin and adrenocorticotrophin (ACTH). The MMQ cell line was obtained by cutting a 7315a tumor into small pieces and then dispersing the pieces into a population of single cells by means of incubating tumor pieces with collagenase. These cells were incubated in tissue culture flasks containing RPMI1640, 5% NHS, 5% FCS. […] The floater cells, which we have designated MMQ, were small granular and irregularly shaped in contrast to the cells that adhered to the flasks.
# MMQ cells [2] = experiment: cAMP levels in the MMQ cells; format: cell-based, rat; details: for effect on the dopaminergic inhibition of stimulated cAMP: pertussis toxin as pre-treatment of the cells
# Text: Further studies included measurement of the cAMP levels in the MMQ cells.
# MMQ cells [3] = system: MMQ cells
# Text: The non-adherent cell has been designated MMQ.
# The clonal cell line MMQ, was derived from the non-adherent cells which secrete only prolactin and no detectable amounts of ACTH or any other pituitary hormones.
# [4] = system: adherent cells of pituitary tumor 7315a
# Text: This isolation involved the use of the solid tumor which was dispersed with collagenase and cultured in RPMI-1640 containing normal horse and calf serum. As previously mentioned, one population is adherent to plastic-ware and the other is non-adherent.
molecule,measurement,setting,value
C=CC[C@H](C)[C@H](C)C[C@@H](O)[C@H](O)[C@@H]1CC[C@@]2(C)O[C@@]3(C)C[C@@]4(C)O[C@H]5/C=C\C[C@H]6O[C@H]7C[C@H]8O[C@H]9C[C@@]%10(C)O[C@@](C)([C@@H]%11CC[C@H]%12O[C@@]%13(C)C[C@H]%14O[C@@]%15(C)C[C@H]%16O[C@@]%17(C)C[C@@H](O)[C@H]([C@@H]%18O[C@H]%19[C@H](O)[C@@H](O)[C@H](C[C@H](O)C[C@@H](O)[C@@H]%20O[C@H]%21[C@H](O)[C@@H](O)[C@H]([C@@H]%22O[C@@H]%23[C@H](O)[C@H]%24O[C@H]%25C[C@H]%26O[C@@H](C[C@H](O)[C@@H](O)[C@H]%27O[C@H]%28[C@H](O)[C@H]%29O[C@H]%30C[C@H]%31O[C@H]%32[C@@H](O)[C@@H](O)[C@H]([C@H](C)[C@H](O)[C@H](C)CC[C@H](OS(=O)(=O)O)[C@H](O)[C@H](C)C[C@@H](O)C(=C)/C(C)=C/CO)O[C@@H]%32[C@H](O)C[C@]%31(C)O[C@@H]%30C[C@]%29(C)O[C@@H]%28C[C@H]%27O)[C@H](OS(=O)(=O)O)[C@H](O)[C@@H]%26O[C@@H]%25C[C@@H]%24O[C@H]%23[C@H](O)[C@H]%22O)O[C@H]%21C[C@H]%20O)O[C@H]%19C[C@H]%18O)O[C@@H]%17[C@H](O)[C@]%16(C)O[C@@H]%15CC[C@]%14(C)O[C@@H]%13C[C@@H]%12O%11)[C@H](O)C[C@@H]%10O[C@]9(C)CC[C@]8(C)O[C@]7(C)C[C@@H]6O[C@@H]5C[C@@H]4O[C@@H]3C[C@@H]2O1 [maitotoxin],response of MMQ cells to maitotoxin (45Ca2+),MMQ cells [1]; MMQ floater cells loaded with 45Ca2+,modest response
C=C[C@@]1(C)CC(=O)[C@]2(O)[C@@]3(C)[C@@H](O)CCC(C)(C)[C@@H]3[C@H](O)[C@H](OC(C)=O)[C@@]2(C)O1 [forskolin],cellular cAMP levels,MMQ cells [2],increased
choleratoxin,cellular cAMP levels,MMQ cells [2],increased
C[C@H](N)C(=O)NCC(=O)N[C@H]1CSSC[C@@H](C(=O)O)NC(=O)[C@H](CO)NC(=O)[C@H]([C@@H](C)O)NC(=O)[C@H](Cc2ccccc2)NC(=O)[C@H]([C@@H](C)O)NC(=O)[C@H](CCCCN)NC(=O)[C@H](Cc2c[nH]c3ccccc23)NC(=O)[C@H](Cc2ccccc2)NC(=O)[C@H](Cc2ccccc2)NC(=O)[C@H](CC(N)=O)NC(=O)[C@H](CCCCN)NC1=O [Somatostatin],attenuation of forskolin and VIP-stimulated cAMP generation,MMQ cells [2]; SRIF 100 nM,30%
"Vasoactive intestinal peptide (HSDAVFTDNYTRLRKQMAVKKYLNSILN; ends and bridges not checked; UniProt P01282 125-152, looked up) [peptide that increases cellular cAMP levels]",cellular cAMP levels,MMQ cells [2],increased
O=C(CCCN1CCC(O)(c2ccc(Cl)cc2)CC1)c1ccc(F)cc1 [Haloperidol],effect on the dopaminergic inhibition of stimulated cAMP,MMQ cells [2],blocked the dopaminergic effects
pertussis toxin,effect on the dopaminergic inhibition of stimulated cAMP,MMQ cells [2],blocked the dopaminergic effects
NCCc1ccc(O)c(O)c1 [dopamine],effect of dopamine on prolactin-release after long-term culture,MMQ cells [3]; MMQ cells after more than a year in culture,has not been altered
same,inhibition of maitotoxin-induced prolactin release,MMQ cells [3]; clonal MMQ cells,50-80%
same,effect on prolactin release stimulated by maitotoxin,MMQ cells [3]; non-adherent cells,inhibits prolactin release
same,effect on maitotoxin-induced efflux of 45Ca2+,"MMQ cells [1]; addition of dopamine, MMQ cells",blocked
same,inhibition at 1 µM,"MMQ cells [2]; Rattus norvegicus, 1 μM of dopamine, read-out: attenuation of forskolin and VIP-stimulated cAMP generation",50%
same,"effect on VIP-, forskolin- and choleratoxin-increased cellular cAMP levels",MMQ cells [2]; dopamine 50-1000 nM,inhibited each response in a concentration-dependent manner
same,effect on prolactin release stimulated by maitotoxin,[4],not in the adherent ones
